# Measurements published in PubChem BioAssay (NCI).
# Values joined by “and” are separate entries in the source; they are usually repeats but may differ in a detail not shown here. Equal entries are not always repeated.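 Dose response: 5 concentrations. Exposure: 48 h. Format: 96-well plates. Endpoint: linear interpolation; highest concentration if not reached. GI50 is the concentration that inhibits growth by half. TGI denotes the concentration required for complete inhibition of growth.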
# Tests used:
# Experiment in all cases: NCI-60 cell line screen, 48 h
# [1] = tested on: SK-MEL-28 melanoma
# [2] = tested on: LOX IMVI melanoma
# [3] = tested on: OVCAR-5 ovarian
# [4] = tested on: MDA-MB-435
# [5] = tested on: NCI-H522 lung
# [6] = tested on: RXF 393 renal
# [7] = tested on: SK-OV-3 ovarian
SMILES,GI50 [1] [µM],TGI [1],GI50 [2] [µM],TGI [2] [µM],GI50 [3] [µM],TGI [3],GI50 [4] [µM],TGI [4],GI50 [5] [µM],TGI [5] [µM],GI50 [6],TGI [6] [µM],GI50 [7] [µM],TGI [7]
COc1ccc(-c2nn(-c3cccc(Cl)c3)cc2-c2c(C#N)c(=O)n3[nH]c(-c4ccc(C)o4)nc3c2C#N)cc1,5.51,21.1 µM,3.92,12.3,13.6,> 50 µM,4.44,30.1 µM,4.96,23.1,4.11 µM,> 50,11.7,> 50 µM
c1ccc2[nH]c(-c3cscn3)nc2c1,–,> 100 µM,–,> 100,–,> 100 µM,–,> 100 µM,–,> 100,> 100 µM and 49.1 µM,> 100,–,> 100 µM
Nc1nc2c([nH]1)c1[nH]c3ccccc3c1c1[nH]c3ccccc3c21,11.5,23.7 µM,16,32.5,16.1,30 µM,9.73,22 µM,17.2,34.1,6.08 µM,19.4,16.2,29.7 µM
NCC[PH+](c1ccccc1)c1ccccc1.NCC[PH+](c1ccccc1)c1ccccc1.[Cl-].[Pt+4],> 100,> 100 µM,> 100,> 100,> 100,> 100 µM,> 100,> 100 µM,> 87.1,> 100,> 100 µM,> 100,> 100,> 100 µM
Cn1cc(C2=C(c3cccc([N+](=O)[O-])c3)C(=O)NC2=O)c2ccccc21,10.5,> 25 µM,3.94,> 25,> 25,> 25 µM,7.46,> 25 µM,7.66,> 22.5,2.12 µM,9.4,6.35,> 25 µM
O=C(/C=C/c1ccccn1)c1ccccc1,6.09,19.2 µM,1.63,3.08,6.52,24.1 µM,7.85,24.9 µM,1.65,3.1,3.17 µM,13.1,16.8,30.5 µM
O=[N+]([O-])/C(=C/C=C/c1ccccc1)c1ccccc1,2.09,4.23 µM,1.67,3.29,2.38,6.06 µM,2.12,4.92 µM,1.62,4.08,1.81 µM,3.84,12,24.4 µM
COc1ccc2cc1Oc1ccc(cc1)CC1c3c(cc(OC)c4c3Oc3cc5c(cc3O4)CCNC5C2)CCN1C (centres undefined),1.84,3.5 µM and 3.54 µM,–,3.22,1.98,15.1 µM and 3.46 µM,1.56,3.43 µM and 2.9 µM,–,3.27,0.288 µM,0.883,1.74,15.5 µM and 3.11 µM
